Measured values: patent US12606552B2, “Bifunctional compound, preparation method therefor, and use thereof” (SUZHOU KINTOR PHARMACEUTICALS, INC., priority 2020, dated 2026)

Target: T1, AR (Homo sapiens, UniProt P10275, T878A)
T1 sequence (P10275 1-920 T878A): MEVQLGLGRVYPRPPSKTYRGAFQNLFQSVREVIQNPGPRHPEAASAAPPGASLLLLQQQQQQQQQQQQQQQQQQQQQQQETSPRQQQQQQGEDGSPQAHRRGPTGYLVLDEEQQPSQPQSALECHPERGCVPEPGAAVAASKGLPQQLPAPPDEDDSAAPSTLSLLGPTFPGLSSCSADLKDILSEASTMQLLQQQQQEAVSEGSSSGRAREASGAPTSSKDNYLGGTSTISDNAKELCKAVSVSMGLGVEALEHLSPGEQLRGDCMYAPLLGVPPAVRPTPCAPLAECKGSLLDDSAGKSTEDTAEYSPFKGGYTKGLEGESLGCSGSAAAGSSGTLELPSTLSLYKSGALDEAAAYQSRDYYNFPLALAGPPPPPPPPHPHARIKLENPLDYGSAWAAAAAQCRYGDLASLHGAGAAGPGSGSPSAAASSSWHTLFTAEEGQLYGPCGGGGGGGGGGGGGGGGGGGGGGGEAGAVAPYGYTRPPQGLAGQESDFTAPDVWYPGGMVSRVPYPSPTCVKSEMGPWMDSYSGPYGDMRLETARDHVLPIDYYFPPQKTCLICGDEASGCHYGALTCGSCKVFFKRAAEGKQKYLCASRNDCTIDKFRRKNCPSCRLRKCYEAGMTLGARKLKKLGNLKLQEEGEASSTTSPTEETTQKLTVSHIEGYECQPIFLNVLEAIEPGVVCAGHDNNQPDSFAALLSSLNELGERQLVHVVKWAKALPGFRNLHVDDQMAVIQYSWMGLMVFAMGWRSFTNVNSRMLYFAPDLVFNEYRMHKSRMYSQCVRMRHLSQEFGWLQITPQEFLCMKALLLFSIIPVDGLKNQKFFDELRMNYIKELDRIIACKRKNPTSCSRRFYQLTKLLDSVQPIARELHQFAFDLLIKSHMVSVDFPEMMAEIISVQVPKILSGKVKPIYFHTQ
Experiment: Effects of compounds on AR expression in LNCaP cells (ELISA, DC50)
Type: cell-based
Set-up: Measurement of the Effects of Drugs on the Expression of AR in Cells by ELISA Method; endogenous in cells; host or cells: LNCaP
Details: 24 hours of drug treatment, AR by ELISA
Description: Activity Assay Example 1: Effects of Compounds on AR Expression in LNCaP Cells
1. Cell Line and Cell Culture
Human prostate cancer cells LNCaP (Shanghai Chinese Academy of Sciences Cell Bank). LNCaP was cultured in 1640 medium containing 10% fetal bovine serum. The cells grow in clusters, with weak adhesion to the bottom of the culture flask, slow proliferation, with a multiplication time of 72 h. The cells are closely adhered to each other and need to be digested with 0.05% trypsin containing 0.025% EDTA. The cells were passaged every 3 days. The cells were cultured at 37° C. and 5% CO2 in a humidified incubator
2. Cell plating: The supernatant was discarded, and the Lncap cells in the logarithmic growth phase were taken, washed with PBS once, and added with appropriate 0.05% trypsin digestion solution to be fully digested into single cell suspension, and centrifuged, resuspended and counted to make the number of cells about 15,000 per well, then inoculated in a 96-well plate, placed at 37° C., 5% CO2 and cultured overnight for 24 h.
3. Preparation and Addition of Compound Solutions
About 2 mg of each compound was weighed and dissolved in DMSO to make the stock solution with a concentration of 10 mmol/L. Dilution process (final concentration dilution: 2, 0.667, 0.222, 0.074, 0.0245, 0.008, 0.003, 0.001, 0.0003, 0.0001 μmol/L): 10 centrifuge tubes with a volume of 1.5 mL were taken and numbered 1, 2, 3, 4, 5, 6, 7, 8, 9, and 10, 80 μL DMSO was added to tube No. 1, and 60 μL DMSO was added to tubes No. 2 to No. 10, 20 μL of the stock solution was pipetted to tube No. 1 and mixed well; 30 μL was pipetted from tube No. 1 into tube No. 2 and mixed well. 30 μL was pipetted from tube No. 2 into tube No. 3 and mixed well, and so forth, to obtain samples No. 4-10, and to obtain working solutions of compounds of different concentrations respectively. 2 μL was pipetted from the above-mentioned tubes No. 1-10 into each corresponding sterile deep-well plates, added with 198 μL of culture medium, and mixed well. 11 ul was added to each well of the 96-well cell plate cultured overnight to obtain the corresponding desired concentrations (2, 0.667, 0.222, 0.074, 0.0245, 0.008, 0.003, 0.001, 0.0003, 0.0001 μmol/L).
4. Measurement of the Effects of Drugs on the Expression of AR in Cells by ELISA Method
After 24 hours of drug treatment, the supernatant was removed, and 200 μL of PBS was added to wash cells, and then the supernatant was removed, and 100 μL of cell lysate was added to lyse cells on ice for 20 min, then the cell lysate was centrifuged at 4000 rpm for 20 min at 4° C. and the supernatant was taken for later use. The measurement steps of the supernatant were according to the ELISA kit instructions:
4.1 The slats required for the test were taken out from the sealed bag that has been equilibrated to room temperature. Please put the unused slats and desiccant back into the aluminum foil bag and compress the self-sealing strip, seal the bag, and store at 4° C.
4.2 Standards and sample diluents were added to blank wells, and different concentrations of standards (10 ul/well) and sample diluents (90 ul/well) were added to the remaining corresponding wells, and the reaction wells were sealed with sealing tape, and refrigerated at 4° C. overnight.
4.3 Primary antibody was diluted with dilution buffer to the corresponding concentration and added to each well in 100 ul/well. The reaction wells were sealed with sealing tape and incubated at 37° C. for 60 min.
4.4 Secondary antibody was diluted with dilution buffer to the corresponding concentration and added to each well in 100 ul/well. The reaction wells were sealed with sealing tape and incubated at 37° C. for 30 min.
4.5 The reaction wells were added with 100 ul/well of substrate (TMB) and incubated at room temperature for 30 min.
4.6 The reaction wells were added with 100 ul/well of stop solution, mixed well and then the OD450 value was measured with a microplate reader. […]

Structure (SMILES)	DC50 [nM]
CC1(C)C(=O)N(c2ccc(C#N)c(C(F)(F)F)c2F)C(=S)N1c1cnc(-c2ccc(OC3CCN(C(=O)COc4ccc5c(c4)C(=O)N(C4CCC(=O)NC4=O)C5=O)CC3)cc2C(F)(F)F)c(F)c1 (centres unmarked) [Compound A180]	840
Cc1ncsc1-c1ccc(CNC(=O)[C@@H]2C[C@@H](O)CN2C(=O)[C@@H](NC(=O)COCCOCCOc2ncc(N3C(=S)N(c4ccc(C#N)c(C(F)(F)F)c4F)C(=O)C3(C)C)cc2F)C(C)(C)C)cc1 [Compound A265]	381
CC1(C)C(=O)N(c2ccc(C#N)c(C(F)(F)F)c2F)C(=S)N1c1ccc([C@@H]2C[C@H]2C(=O)NCCCCNC(=O)COc2cccc3c2C(=O)N(C2CCC(=O)NC2=O)C3=O)nc1 (some centres unmarked) [Compound A28]	> 2000
CC1(C)C(=O)N(c2ccc(C#N)c(C(F)(F)F)c2F)C(=S)N1c1cnc(-c2cc(F)c(OC3CCN(C(=O)COc4cccc5c4C(=O)N(C4CCC(=O)NC4=O)C5=O)CC3)c(F)c2)c(F)c1 (centres unmarked) [Compound A191]	162
Cc1ncsc1-c1ccc(CNC(=O)[C@@H]2C[C@@H](O)CN2C(=O)[C@@H](NC(=O)COc2ccc(-c3ccc(N4C(=S)N(c5ccc(C#N)c(C(F)(F)F)c5F)C(=O)C4(C)C)cn3)cc2)C(C)(C)C)cc1 [Compound A48]	> 2000
Cc1cc(C(C(=O)N2C[C@H](O)C[C@H]2C(=O)N[C@@H](CC(=O)N2CCC(Oc3ccc(-c4ncc(N5C(=S)N(c6ccc(C#N)c(C(F)(F)F)c6F)C(=O)C5(C)C)cc4F)cc3F)CC2)c2ccc(-c3scnc3C)cc2)C(C)C)on1 (some centres unmarked) [Compound A178]	90.5
Cc1ncsc1-c1ccc(CNC(=O)[C@@H]2C[C@@H](O)CN2C(=O)[C@@H](NC(=O)CCN2CCC(NC(=O)c3ccc(-c4ccc(N5C(=S)N(c6ccc(C#N)c(C(F)(F)F)c6F)C(=O)C5(C)C)cn4)cc3)C2)C(C)(C)C)cc1 (some centres unmarked) [Compound A56]	704
Cc1cc(C(C(=O)N2C[C@H](O)C[C@H]2C(=O)N[C@@H](CC(=O)NCCN2CCC(C#Cc3ccc(N4C(=S)N(c5ccc(C#N)c(C(F)(F)F)c5F)C(=O)C4(C)C)cc3)CC2)c2ccc(-c3scnc3C)cc2)C(C)C)on1 (some centres unmarked) [Compound A184]	370
CC1(C)C(=O)N(c2ccc(C#N)c(C(F)(F)F)c2F)C(=S)N1c1ccc(-c2ccc(OCCNC(=O)COc3cccc4c3C(=O)N(C3CCC(=O)NC3=O)C4=O)cc2)nc1 (centres unmarked) [Compound A23]	721
Cc1ncsc1-c1ccc(CNC(=O)[C@@H]2C[C@@H](O)CN2C(=O)[C@@H](NC(=O)[C@H]2CC[C@H](CNC(=O)c3ccc(-c4ccc(N5C(=S)N(c6ccc(C#N)c(C(F)(F)F)c6F)C(=O)C5(C)C)cn4)cc3)CC2)C(C)(C)C)cc1 [Compound A59]	48.6
CC(C)(C)[C@H](NC(=O)COCCCCOc1ccc(-c2ncc(N3C(=S)N(c4ccc(C#N)c(C(F)(F)F)c4F)C(=O)C3(C)C)cc2F)c(C(F)(F)F)c1)C(=O)N1C[C@H](O)C[C@H]1c1nc(-c2ccccc2)c[nH]1 [Compound A202]	661
CC(C)(C)[C@H](NC(=O)COCCCCOc1ccc(-c2ccc(N3C(=S)N(c4ccc(C#N)c(C(F)(F)F)c4F)C(=O)C3(C)C)cn2)cc1)C(=O)N1C[C@H](O)C[C@H]1c1nc(-c2cncs2)c[nH]1 [Compound A203]	71.9
Cc1ncsc1-c1ccc(CNC(=O)[C@@H]2C[C@@H](O)CN2C(=O)[C@@H](NC(=O)COCCCOCCCCCOc2ccc(N3C(=S)N(c4ccc(C#N)c(C(F)(F)F)c4F)C(=O)C3(C)C)cn2)C(C)(C)C)cc1 [Compound A247]	75.5
Cc1ncsc1-c1ccc(CNC(=O)[C@@H]2C[C@@H](O)CN2C(=O)[C@@H](NC(=O)CCCN2CC(Oc3ccc(-c4ccc(N5C(=S)N(c6ccc(C#N)c(C(F)(F)F)c6F)C(=O)C5(C)C)cn4)cc3)C2)C(C)(C)C)cc1 [Compound A64]	233
Cc1ncsc1-c1cn(C)c([C@@H]2C[C@@H](O)CN2C(=O)[C@@H](NC(=O)COCCCCOc2ccc(-c3ccc(N4C(=S)N(c5ccc(C#N)c(C(F)(F)F)c5F)C(=O)C4(C)C)cn3)cc2)C(C)(C)C)n1 [Compound A220]	289
Cc1ncsc1-c1ccc(CNC(=O)[C@@H]2C[C@@H](O)CN2C(=O)[C@@H](NC(=O)COCCC(F)(F)COc2ccc(-c3ncc(N4C(=S)N(c5ccc(C#N)c(C(F)(F)F)c5F)C(=O)C4(C)C)cc3F)c(C(F)(F)F)c2)C(C)(C)C)cc1 [Compound A167]	204
Cc1ncsc1-c1ccc(CNC(=O)[C@@H]2C[C@@H](O)CN2C(=O)[C@@H](NC(=O)CN2CCN(Cc3ccc(-c4ccc(N5C(=S)N(c6ccc(C#N)c(C(F)(F)F)c6F)C(=O)C5(C)C)cn4)cc3)CC2)C(C)(C)C)cc1 [Compound A86]	69.3
CC1(C)C(=O)N(c2ccc(C#N)c(C(F)(F)F)c2F)C(=S)N1c1cnc(-c2ccc(OC3CCN(C(=O)COc4cccc5c4C(=O)N(C4CCC(=O)NC4=O)C5=O)CC3)c(F)c2)c(F)c1 (centres unmarked) [Compound A43]	88.3
CC1(C)C(=O)N(c2ccc(C#N)c(C(F)(F)F)c2F)C(=S)N1c1cnc(-c2ccc(OC3CCN(C(=O)COc4ccc5c(c4)C(=O)N(C4CCC(=O)NC4=O)C5=O)CC3)c(F)c2)c(F)c1 (centres unmarked) [Compound A42]	122
CC(C)(C)[C@H](NC(=O)COCCCCOc1c(F)cc(-c2ncc(N3C(=S)N(c4ccc(C#N)c(C(F)(F)F)c4F)C(=O)C3(C)C)cc2C(F)(F)F)cc1F)C(=O)N1C[C@H](O)C[C@H]1C(=O)NCc1ccc(C(N)=O)cc1 [Compound A116]	370
CC(C)(C)[C@H](NC(=O)COCCCCOc1ccc(-c2ncc(N3C(=S)N(c4ccc(C#N)c(C(F)(F)F)c4F)C(=O)C3(C)C)cc2F)c(C(F)(F)F)c1)C(=O)N1C[C@H](O)C[C@H]1c1nc(-c2cncs2)c[nH]1 [Compound A204]	36.4
Cc1ncsc1-c1ccc(CNC(=O)[C@@H]2C[C@@H](O)CN2C(=O)[C@@H](NC(=O)CCN2CCC(Oc3ccc(-c4ncc(N5C(=S)N(c6ccc(C#N)c(C(F)(F)F)c6F)C(=O)C5(C)C)cc4F)cc3F)CC2)C(C)(C)C)cc1 [Compound A104]	241
CC1(C)C(=O)N(c2ccc(C#N)c(C(F)(F)F)c2F)C(=S)N1c1cnc(-c2ccc(OCCNC(=O)COc3ccc4c(c3)C(=O)N(C3CCC(=O)NC3=O)C4=O)c(F)c2)c(F)c1 (centres unmarked) [Compound A40]	29.8
